In patent publication US20240207285A1 (Melt Pharmaceuticals, Inc., priority 2022, published 2024):

Experiments:
[1] = test system: subjects undergoing cataract extraction with lens replacement (CELR); assay: Phase 2 treatment-emergent ocular adverse events (study eye, non-study eye, either eye); details: for Eye disorders, % / General disorders and administration site conditions, % / Infections and infestations, % / Injury, poisoning and procedural complications, % / Investigations, %: system organ class
Procedure: (§1) The Phase 2 study was factorial-designed, randomized, double-blind, placebo-controlled, and included parallel-cohorts. […] Primary efficacy endpoints included appropriate sedation during the cataract surgery and management of intraoperative pain during the surgery.
The study eye (TABLE 31) non-study eye (TABLE 32), or either eye (TABLE 33) was assessed. TEAES were defined as events that started on or after the date of the study drug administration through the end of Visit 4 or early withdrawal. Subjects with one or more adverse event within a level of Medical Dictionary for Regulatory Activities (MedDRA) were counted only once in that level.

[2] = test system: subjects undergoing cataract extraction with lens replacement (CELR); assay: Phase 2 subjects receiving opioid concomitant medication postoperatively; format: in vivo, human
[3] = test system: subjects undergoing cataract extraction with lens replacement (CELR); assay: Phase 2 subjects requiring rescue analgesic medication; format: in vivo, human; details: Visit 2 (Day 1); Full Analysis Set
Procedure: (§2) The number of subjects achieving analgesia response (observed) in the full analysis set was determined. Success in analgesia response was defined as NPRS <4 at the available at the available four intraoperative timepoints and a failure otherwise (e.g., any interoperative pain rescue was assumed to be a failure. Results are provided in TABLE 24. The number of subjects completing the surgery is provided in TABLE 25, and the number of subjects completing the surgery without interruption is provided in TABLE 26. For this measure, subjects completing the surgery without interruption (other than rescue medication) due to pain or anxiety were considered successes. The number of subjects requiring rescue sedative medication and those requiring analgesic medication are provided in TABLES 27 and 28, respectively. For all TABLES 24-28, p-Values between pairs of treatments were calculated and are provided.

[4] = test system: subjects undergoing cataract extraction with lens replacement (CELR); assay: Phase 2 subjects achieving procedural sedation (RSS 2 or 3 without rescue); format: in vivo, human; details: Visit 2 (Day 1), Full Analysis Set
Procedure: A Phase 2 efficacy and safety study of the MELT-300 formulation was conducted at nine sites with over 300 enrolled subjects. MELT-300 is a sublingual, needle- and opioid-free formulation for procedural sedation during cataract surgery. […] MELT-300 utilizes fast-dissolving delivery technology (Zydis®, Catalent Inc.) to rapidly dissolve the tablet for absorption across the sublingual mucosa.
as §1
Achievement of procedural sedation was evaluated for each subject (see TABLE 19). Success for procedural sedation for this Phase 2 study was defined as achieving target sedation level (Ramsay Sedation Scale (RSS) scale level 2 or 3) at the start of surgery without the need for rescue sedation medication, and no need for intraoperative rescue sedation medication to maintain target sedation level.

[5] = test system: subjects undergoing cataract extraction with lens replacement (CELR); assay: Phase 2 subject-rated worst pain during surgery by the numeric pain rating scale; format: in vivo, human; details: carry forward
[6] = test system: subjects undergoing cataract extraction with lens replacement (CELR); assay: Phase 2 subjects achieving analgesia response (NPRS <4); format: in vivo, human; details: Visit 2 (Day 1), observed
Procedure: as §2

[7] = test system: subjects undergoing cataract extraction with lens replacement (CELR); assay: Phase 2 subjects completing the surgery; format: in vivo, human; details: Visit 2 (Day 1); Full Analysis Set
Procedure: as §2

[8] = test system: subjects undergoing cataract extraction with lens replacement (CELR); assay: Phase 2 mean intraoperative analgesia by the numeric pain rating scale; format: in vivo, human
Procedure: An average of the available timepoints was also calculated.

[9] = test system: subjects undergoing cataract extraction with lens replacement (CELR); assay: Phase 2 subjects completing the surgery without interruption; format: in vivo, human; details: Visit 2 (Day 1); Full Analysis Set
Procedure: as §2

[10] = test system: subjects undergoing cataract extraction with lens replacement (CELR); assay: Phase 2 subjects wanting study drug again for a second surgery (11-point Likert scale); format: in vivo, human
From the text: Post-operation, subjects were asked whether they would want the study drug again for a second surgery using an 11-point Likert scale of 0 (not likely at all) to 10 (extremely likely).

[11] = test system: subjects undergoing cataract extraction with lens replacement (CELR); assay: Phase 2 subjects requiring rescue sedative medication; format: in vivo, human; details: Visit 2 (Day 1)
Procedure: as §2

[12] = Average of available timepoints, adjusted for site table, carry forward
[13] = Average of available timepoints, carry forward
[14] = Average of available timepoints, observed
[15] = Corneal incision, adjusted for site table, carry forward
[16] = Corneal incision, carry forward
[17] = Insertion of the phacoemulsion probe, adjusted for site table, carry forward
[18] = Insertion of the phacoemulsion probe, carry forward
[19] = Insertion of the phacoemulsion probe, observed
[20] = Insertion of the speculum, adjusted for site table, carry forward
[21] = Insertion of the speculum, carry forward
[22] = Insertion of the speculum, observed
[23] = Insertion of the synthetic replacement lens, adjusted for site table, carry forward
[24] = Insertion of the synthetic replacement lens, carry forward
[25] = Insertion of the synthetic replacement lens, observed
[26] = 11-point Likert scale 0 (not likely at all) to 10 (extremely likely)

For CNC1(c2ccccc2Cl)CCCCC1=O (stereo not drawn) [Ketamine 50 mg], the “Cataract operation complication, %” value ([1]; Either Eye) was “(0) %”, the “Conjunctivitis bacterial, %” value ([1]; Either Eye) was “(1.2) %” and the “Corneal abrasion, %” value ([1]; Either Eye) was “(0) %”. For the same compound, the “Corneal oedema, %” value ([1]; Either Eye) was “(1.2) %”, the “Endophthalmitis, %” value ([1]; Either Eye) was “(1.2) %” and the “Eye pain, %” value ([1]; Either Eye) was “(3.5) %”. For the same compound, the “Foreign body sensation in eyes, %” value ([1]; Either Eye) was “(0) %”, the “Intraocular pressure increased, %” value ([1]; Either Eye) was “(1.2) %” and the “Ocular hypertension, %” value ([1]; Either Eye) was “(1.2) %”. The “Pain, %” value ([1]; Either Eye) was “(0) %”, the “Paracentesis eye, %” value ([1]; Either Eye) was “(0) %” and the “Procedural pain, %” value ([1]; Either Eye) was “(0) %”. The “Subjects with Any Treatment-Emergent Ocular AEs, %” value ([1]; Either Eye) was “(8.2) %”, the “Vision blurred, %” value ([1]; Either Eye) was “(0) %” and the “Eye disorders, %” value ([1]; Either Eye) was “(5.9) %”. For the same compound, the “General disorders and administration site conditions, %” value ([1]; Either Eye) was “(0) %”, the “Infections and infestations, %” value ([1]; Either Eye) was “(2.4) %” and the “Injury, poisoning and procedural complications, %” value ([1]; Either Eye) was “(0) %”. The “Investigations, %” value ([1]; Either Eye) was “(1.2) %”, the “Conjunctivitis bacterial, %” value ([1]; Non-Study Eye) was “(1.2) %” and the “Eye pain, %” value ([1]; Non-Study Eye) was “(0) %”. For the same compound, the “Subjects with Any Treatment-Emergent Ocular AEs, %” value ([1]; Non-Study Eye) was “(1.2) %”, the “Vision blurred, %” value ([1]; Non-Study Eye) was “(0) %” and the “Eye disorders, %” value ([1]; Non-Study Eye) was “(0) %”. The “Infections and infestations, %” value ([1]; Non-Study Eye) was “(1.2) %”, the “Cataract operation complication, %” value ([1]; Study Eye) was “(0) %” and the “Corneal abrasion, %” value ([1]; Study Eye) was “(0) %”. The “Corneal oedema, %” value ([1]; Study Eye) was “(1.2) %”, the “Endophthalmitis, %” value ([1]; Study Eye) was “(1.2) %” and the “Eye pain, %” value ([1]; Study Eye) was “(3.5) %”. For the same compound, the “Foreign body sensation in eyes, %” value ([1]; Study Eye) was “(0) %”, the “Intraocular pressure increased, %” value ([1]; Study Eye) was “(1.2) %” and the “Ocular hypertension, %” value ([1]; Study Eye) was “(1.2) %”. For the same compound, the “Pain, %” value ([1]; Study Eye) was “(0) %”, the “Procedural pain, %” value ([1]; Study Eye) was “(0) %” and the “Subjects with Any Treatment-Emergent Ocular AEs, %” value ([1]; Study Eye) was “(7.1) %”. For the same compound, the “Eye disorders, %” value ([1]; Study Eye) was “(5.9) %”, the “General disorders and administration site conditions, %” value ([1]; Study Eye) was “(0) %” and the “Infections and infestations, %” value ([1]; Study Eye) was “(1.2) %”. For the same compound, the “Injury, poisoning and procedural complications, %” value ([1]; Study Eye) was “(0) %”, the “Investigations, %” value ([1]; Study Eye) was “(1.2) %” and the “Paracentesis eye, %” value ([1]; printed in the Non-Study Eye table) was “(0) %”. The “Received Postoperative Opioid on Day 2: No, %” value ([2]; Day 2) was “(100.0) %”, the “Received Postoperative Opioid on Day 2: Yes, %” value ([2]; Day 2) was “(0.0) %” and the “Received Postoperative Opioid on Day 2-8: No, %” value ([2]; Day 2-8) was “(100.0) %”. For the same compound, the “Received Postoperative Opioid on Day 2-8: Yes, %” value ([2]; Day 2-8) was “(0.0) %”, the “Subjects requiring rescue analgesic medication: No, %” value [3] was “(59.5) %” and the “Subjects requiring rescue analgesic medication: Yes, %” value [3] was “(40.5) %”. For the same compound, the “Subjects achieving procedural sedation: No, %” value [4] was 36.7%, the “Subjects achieving procedural sedation: Yes, %” value ([4]; RSS 2 or 3 without rescue sedation) was 63.3% and the “Worst Pain During Surgery, Mean Difference versus placebo” value [5] was −0.33. For the same compound, the “Worst Pain During Surgery (NPRS), mean” value ([5]; Full Analysis Set) was 3.7, the “Worst Pain During Surgery (NPRS), median” value ([5]; Full Analysis Set) was 4.0 and the “Subjects achieving analgesia response: Yes, %” value ([6]; NPRS <4 at four intraoperative timepoints) was 49.4%. For the same compound, the “Subjects achieving analgesia response: No, %” value [6] was 50.6%, the “Subjects completing the surgery: No, %” value [7] was 0 (0) % and the “Subjects completing the surgery: Yes, %” value [7] was 100.0%. The “Intraoperative NPRS, LS Mean” value ([8]; Average of available timepoints, adjusted for site (study center covariate), carry forward) was 1.89, the “Intraoperative NPRS, mean” value [8, 12] was 2.16 and the “Intraoperative NPRS, median” value [8, 12] was 1.75. The “Intraoperative NPRS, mean” value [8, 13] was 2.16, the “Intraoperative NPRS, median” value [8, 13] was 1.75 and the “Intraoperative NPRS, LS Mean” value ([8]; Average of available timepoints, carry forward, repeated measures model) was 2.16. The “Intraoperative NPRS, mean” value [8, 14] was 2.00, the “Intraoperative NPRS, median” value [8, 14] was 1.75 and the “Intraoperative NPRS, LS Mean” value ([8]; Average of available timepoints, observed, repeated measures model) was 2.22. For the same compound, the “Intraoperative NPRS, mean” value [8, 15] was 1.8, the “Intraoperative NPRS, median” value [8, 15] was 1.0 and the “Intraoperative NPRS, mean” value [8, 16] was 1.8. For the same compound, the “Intraoperative NPRS, median” value [8, 16] was 1.0, the “Intraoperative NPRS, mean” value ([8]; Corneal incision, observed) was 1.7 and the “Intraoperative NPRS, median” value ([8]; Corneal incision, observed) was 1.0. For the same compound, the “Intraoperative NPRS, mean” value [8, 17] was 2.5, the “Intraoperative NPRS, median” value [8, 17] was 2.0 and the “Intraoperative NPRS, mean” value [8, 18] was 2.5. For the same compound, the “Intraoperative NPRS, median” value [8, 18] was 2.0, the “Intraoperative NPRS, mean” value [8, 19] was 2.1 and the “Intraoperative NPRS, median” value [8, 19] was 2.0. The “Intraoperative NPRS, mean” value [8, 20] was 1.1, the “Intraoperative NPRS, median” value [8, 20] was 1.0 and the “Intraoperative NPRS, mean” value [8, 21] was 1.1. The “Intraoperative NPRS, median” value [8, 21] was 1.0, the “Intraoperative NPRS, mean” value [8, 22] was 1.1 and the “Intraoperative NPRS, median” value [8, 22] was 1.0. The “Intraoperative NPRS, mean” value [8, 23] was 3.3, the “Intraoperative NPRS, median” value [8, 23] was 3.0 and the “Intraoperative NPRS, mean” value [8, 24] was 3.3. The “Intraoperative NPRS, median” value [8, 24] was 3.0, the “Intraoperative NPRS, mean” value [8, 25] was 2.5 and the “Intraoperative NPRS, median” value [8, 25] was 2.0. For the same compound, the “Intraoperative NPRS, LS Mean Difference versus placebo” value ([8]; adjusted for site, carry forward) was −0.30, the “Intraoperative NPRS, LS Mean Difference versus placebo” value ([8]; carry forward, repeated measures model) was −0.32 and the “Intraoperative NPRS, LS Mean Difference versus placebo” value ([8]; observed, repeated measures model) was −0.26. The “Subjects completing the surgery without interruption: No, %” value [9] was “(6.3) %”, the “Subjects completing the surgery without interruption: Yes, %” value [9] was “(93.7) %” and the “Want Study Drug Again, mean” value [10, 26] was 7.6. For the same compound, the “Want Study Drug Again, median” value [10, 26] was 10.0, the “Want Study Drug Again, Mean Difference versus placebo” value ([10]; unpaired t-test) was −0.05 and the “Subjects requiring rescue sedative medication: No, %” value ([11]; Full Analysis Set) was “(63.3) %”. The “Subjects requiring rescue sedative medication: Yes, %” value ([11]; Full Analysis Set) was “(36.7) %”, the “Subjects requiring rescue sedative medication: Intraoperatively, %” value ([11]; Intraoperatively) was “(6.3) %” and the “Subjects requiring rescue sedative medication: Pre-operatively, %” value ([11]; Pre-operatively) was “(30.4) %”.
